Where two headings read alike, the source gives them in different places. Bridge positions count the residues as written; N and C are the ends. Square brackets hold non-standard residues; d marks the D form. Peptide text beside a SMILES is read from it. * marks the point of attachment. Ileψ(thiazoline)Cys = CC[C@H](C)[C@H](N)C1=N[C@H](C(=O)*)CS1; dOrn = NCCC[C@@H](N)C(=O)O
Experiments:
[1] = test system: spore suspension of B. atropheus; assay: Bacterial suspension assay, spores; assay type: cell-based; conditions: 5, and 20 minute time points at 20° C.; Bacitracin 33 Units/ml
Procedure: Dermacyn is a ready to use product, therefore performing dilutions during testing was not required.
A purchased spore suspension of B. atropheus at 2.5×10^7 /ml was used for testing. In addition fresh suspensions of Pseudomonas aeruginosa, and Staphylococcus aureus were prepared and measured using a spectrophotometer to ensure the titer was acceptable
Nine microliters of test substance was added to 100 ul of microbe suspension. The test mixture was held at 20° C. for the contact times of 20 seconds, 5 minutes, and 20 minutes. 1.0 ml of the test mixture (entire mixture) was added to 9,0 ml of neutralizer for 20 minutes (this is the original neutralization tube or ONT) 1.0 ml of the neutralized test mixture was plated on Tryptic Soy Agar in duplicate for the 5 minute and 20 minute contact times. Additional dilutions and spread plates were used for the 20 second time point, to achieve countable plates.
All plates were incubated at 30° C.-35° C. for a total of 3 days and were evaluated after each day of incubation.

[2] = test system: Pseudomonas aeruginosa, and Staphylococcus aureus; assay: Bacterial suspension assay, vegetative bacteria; assay type: cell-based; conditions: all time points (20 seconds, 5 minutes, 20 minutes) at 20° C.; Bacitracin 33 Units/ml
[3] = test system: human diploid fibroblasts (HDFs); assay type: cell-based; conditions: 880 mM
Procedure: HP is known to be toxic to eukaryotic cells, increasing apoptosis and necrosis and reducing cellular viability. […] HDF cultures were obtained from three different foreskins, which were pooled and cryopreserved together for the purpose of this study. Only diploid cells were used for all experiments. […] Simultaneous analyses of these parameters were performed in the same cell populations by flow cytometry using: […] B) Annexin V-FITC; and C) Propidium iodide. FIG. 4A-4C disclose percentage values expressed as mean±SD (n=3).

[4] = test system: human diploid fibroblasts (HDFs); conditions: 1 month, 5 μM

Row | SMILES | log reduction of spores [1] | log reduction of the vegetative bacteria [2] | Cell viability ([3]; 5 min) [%] | apoptosis (Annexin-V) ([3]; 5 min) [%] | necrosis (cells incorporating propidium iodide) ([3]; 5 min) [%] | Cell viability ([3]; 30 min) [%] | apoptosis (Annexin-V) ([3]; 30 min) [%] | necrosis (cells incorporating propidium iodide) ([3]; 30 min) [%] | RNA degradation (human cell cultures) | cells with SA-β-Gal expression [4] [%]
1 | CC[C@H](C)[C@H](N)C1=N[C@H](C(=O)N[C@@H](CC(C)C)C(=O)N[C@H](CCC(=O)O)C(=O)N[C@H](C(=O)N[C@H]2CCCCNC(=O)[C@H](CC(N)=O)NC(=O)[C@@H](CC(=O)O)NC(=O)[C@H](Cc3cnc[nH]3)NC(=O)[C@@H](Cc3ccccc3)NC(=O)[C@H]([C@@H](C)CC)NC(=O)[C@@H](CCCN)NC2=O)[C@@H](C)CC)CS1 [Bacitracin] ({Ileψ(thiazoline)Cys}-L[dE]IK[dOrn]I[dF]H[dD]N; lactam 4-C) | no evidence of lowering the bacterial or spore populations | no evidence of lowering the bacterial or spore populations | – | – | – | – | – | – | – | –
2 | OO [HP, hydrogen peroxide] | – | – | 55 | 15 | 20 | 5 | 20 | 75 | significant RNA degradation | 86

Reference: US20070196434A1, “Methods of preventing or treating sinusitis with oxidative reductive potential water solution” (priority 2006, published 2007)
